This experiment has as its target T1, NIH3T3 cells expressing the full length KDR receptor (Homo sapiens, UniProt P35968).
T1 construct: NIH3T3 cells expressing the full length KDR receptor; expressed in transfected cells; host or cells: NIH3T3 cells (G418 selection)
The experiment can be described thus: Cell mechanistic assay - Inhibition of 3T3 KDR phosphorylation. The experiment is classed as cell-based. Particulars: VEGF (30 ng / ml) for 10 minutes after 30 minutes with compound; KDR phosphotyrosine ELISA. The method, then:
NIH3T3 cells expressing the full length KDR receptor were grown in DMEM (Life Technologies, Inc., Grand Island, NY) supplemented with 10% newborn calf serum, low glucose, 25 mM /L sodium pyruvate, pyridoxine hydrochloride and 0.2 mg/ ml of G418 (Life Technologies Inc., Grand Island, NY). The cells were maintained in collagen I-coated T75 flasks (Becton Dickinson Labware, Bedford, MA) in a humidified 5% CO2 atmosphere at 37°C.
Fifteen thousand cells were plated into each well of a collagen I-coated 96-well plate in the DMEM growth medium. Six hours later, the cells were washed and the medium was replaced with DMEM without serum. After overnight culture to quiesce the cells, the medium was replaced by Dulbecco's phosphate-buffered saline (Life Technologies Inc., Grand Island, NY) with 0.1% bovine albumin (Sigma Chemical Co., St Louis, MO). After adding various concentrations (0-300 nM) of test compounds to the cells in 1% final concentration of DMSO, the cells were incubated at room temperature for 30 minutes. The cells were then treated with VEGF (30 ng / ml) for 10 minutes at room temperature. Following VEGF stimulation, the buffer was removed and the cells were lysed by addition of 150 µl of extraction buffer (50 mM Tris, pH 7.8, supplemented with 10% glycerol, 50 mM BGP, 2 mM EDTA, 10 mM NaF, 0.5 mM NaVO4, and 0.3% TX-100) at 4°C for 30 minutes.
To assess receptor phosphorylation, 100 microliters of each cell lysate was added to the wells of an ELISA plate precoated with 300 ng of antibody C20 (Santa Cruz Biotechnology, Inc., Santa Cruz , CA). Following a 60-minute incubation, the plate was washed and bound KDR was probed for phosphotyrosine using an anti-phosphotyrosine mAb clone 4G10 (Upstate Biotechnology, Lake Placid, NY). The plate was washed and wells were incubated with anti-mouse IgG/HRP conjugate (Amersham International plc, Buckinghamshire, England) for 60 minutes. Wells were washed and phosphotyrosine was quantitated by addtion of 100 µl per well of 3,3',5,5' tetramethylbenzidine (Kirkegaard and Perry, TMB Microwell 1 Component peroxidase substrate) solution. Color development was arrested by the addition of 100 µl 1% HCl based stop solution (Kirkegaard and Perry, TMB 1 Component Stop Solution).
Optical densities (OD) were determined spectrophotometrically at 450 nm in a 96-well plate reader (SpectraMax 250, Molecular Devices). Background (no VEGF added) OD values were subtracted from all ODs and percent inhibition was calculated according to the equation: % Inhibition =((OD(VEGF control) - OD(with test compound)) X 100)/(OD(VEGF control) - OD(no VEGF added)) [formula]
IC50s were determined with a least squares analysis program using compound concentration versus percent inhibition. Compounds that have IC50 < 20 nM in this assay include those of Examples 2, 6, 7, 11, 15 and 16. Compounds that have IC50 values between 20 nM and 50 nM include those of examples 1, 4, 5, 8, 10, 12, 13 and 14. Those that have measured IC50 values > 50 nM include those of examples 9 and 21.
(In general: In an ELISA, binding on a coated surface is turned into a signal by an enzyme label.)

In general, IC50 refers to the concentration at which inhibition is half-maximal.

T1 sequence (P35968 20-1356): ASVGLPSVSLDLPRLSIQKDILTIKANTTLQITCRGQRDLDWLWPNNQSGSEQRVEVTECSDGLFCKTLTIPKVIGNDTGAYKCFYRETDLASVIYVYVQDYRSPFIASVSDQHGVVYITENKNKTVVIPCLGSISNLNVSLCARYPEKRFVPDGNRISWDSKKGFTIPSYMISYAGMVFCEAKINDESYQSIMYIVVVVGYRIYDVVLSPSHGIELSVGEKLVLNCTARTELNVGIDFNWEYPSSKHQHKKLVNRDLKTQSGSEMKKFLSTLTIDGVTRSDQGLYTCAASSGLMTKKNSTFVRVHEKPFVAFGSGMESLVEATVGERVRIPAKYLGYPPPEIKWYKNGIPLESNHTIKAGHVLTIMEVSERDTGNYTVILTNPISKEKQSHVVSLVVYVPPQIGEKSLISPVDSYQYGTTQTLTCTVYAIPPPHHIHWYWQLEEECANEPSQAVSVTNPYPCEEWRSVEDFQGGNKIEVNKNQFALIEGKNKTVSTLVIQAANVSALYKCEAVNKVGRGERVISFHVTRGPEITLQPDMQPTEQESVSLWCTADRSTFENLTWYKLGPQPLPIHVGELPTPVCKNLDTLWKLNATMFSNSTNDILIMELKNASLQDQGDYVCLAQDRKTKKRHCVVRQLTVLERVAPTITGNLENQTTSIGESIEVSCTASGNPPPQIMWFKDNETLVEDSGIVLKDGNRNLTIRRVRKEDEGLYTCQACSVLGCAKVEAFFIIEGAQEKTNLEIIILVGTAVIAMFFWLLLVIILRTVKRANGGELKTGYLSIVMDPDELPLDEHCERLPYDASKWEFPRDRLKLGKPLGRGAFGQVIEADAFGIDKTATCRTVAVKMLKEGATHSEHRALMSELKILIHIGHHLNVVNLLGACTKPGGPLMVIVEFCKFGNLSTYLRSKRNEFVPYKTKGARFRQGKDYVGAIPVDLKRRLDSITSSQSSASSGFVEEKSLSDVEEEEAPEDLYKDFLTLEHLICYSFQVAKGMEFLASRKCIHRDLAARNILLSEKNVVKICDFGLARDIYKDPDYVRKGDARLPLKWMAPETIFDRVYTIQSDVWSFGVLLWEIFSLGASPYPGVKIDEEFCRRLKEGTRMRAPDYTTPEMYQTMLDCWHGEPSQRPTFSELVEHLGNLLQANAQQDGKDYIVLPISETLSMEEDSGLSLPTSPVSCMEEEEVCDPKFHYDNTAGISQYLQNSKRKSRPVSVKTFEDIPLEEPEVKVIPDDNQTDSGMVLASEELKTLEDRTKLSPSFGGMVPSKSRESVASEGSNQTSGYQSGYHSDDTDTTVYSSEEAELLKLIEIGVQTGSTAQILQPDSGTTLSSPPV

In the case of `CNC(=O)c1cc(Cc2nnc(Nc3ccc(Cl)cc3)c3ccccc23)ccn1` [Example 1, 4-[4-(4-Chlorophenylamino)phthalazin-1-ylmethyl]pyridin-2-yl carboxylic acid methylamide], the 50% inhibitory concentration (IC50) was 20 to 50 nM.

The values above are taken from EP1208096B1, “SUBSTITUTED PYRIDAZINES AND FUSED PYRIDAZINES WITH ANGIOGENESIS INHIBITING ACTIVITY” (Bayer Corporation, priority 1999, dated 2001).
